From the Biogen ADME set (Fang et al. 2023) come the findings set out here.

In brackets after ≈: the same amount, converted by molar mass.

The conditions of the data set: for aqueous solubility: pH 6.8.

One may read the aqueous solubility as the dissolved amount per volume that the medium holds. A low value points to a poorly soluble substance. Consider `CCOC(=S)SCC(=O)Nc1nc(-c2ccc(C3CCCCC3)cc2)cs1`, for which the MDR1-MDCK efflux ratio worked out at 0.229; the intrinsic clearance, human liver microsomes was found to be 267 mL/min/kg; the intrinsic clearance, rat liver microsomes worked out at 1390 mL/min/kg; the aqueous solubility amounted to 2.18 µg/mL (≈ 5.18 µM).
As to `CC(C)c1noc(CN(C)C2CCCC2)n1`, the intrinsic clearance, human liver microsomes came out at 15.9 mL/min/kg; the intrinsic clearance, rat liver microsomes amounted to 657 mL/min/kg; the aqueous solubility stood at 17.3 µg/mL (≈ 77.3 µM).
As for `Cc1csc(N(C(=O)c2ccc(-n3cncn3)c(F)c2)C2CC2)n1`, the MDR1-MDCK efflux ratio was 0.63; the intrinsic clearance, human liver microsomes came out at 16.5 mL/min/kg; the intrinsic clearance, rat liver microsomes was found to be 215 mL/min/kg; the aqueous solubility was found to be 53.3 µg/mL (≈ 155 µM).
With `CCn1ncc(CN(C)C(=O)c2ccc(-c3nc(C)cc(C)n3)cc2)c1C`, the MDR1-MDCK efflux ratio came out at 4.16; the intrinsic clearance, human liver microsomes turned out to be 19.3 mL/min/kg; the intrinsic clearance, rat liver microsomes amounted to 278 mL/min/kg.
Turning to `CC(C)(C)C(=O)N1CCC(CN(CC(N)=O)C2CCCC2)CC1`, the MDR1-MDCK efflux ratio was determined as 26.6; the intrinsic clearance, human liver microsomes came to 29.8 mL/min/kg; the intrinsic clearance, rat liver microsomes stood at 1410 mL/min/kg.
On to `COc1cccc2c1Oc1nc(-c3ccccc3)[nH]c(=S)c1C2`, for which the aqueous solubility came to 0.35 µg/mL (≈ 1.09 µM).
Consider `Cc1ccc(-c2ccnc(O)c2C#N)cc1`, for which the MDR1-MDCK efflux ratio was 0.966; the intrinsic clearance, human liver microsomes was at most 4.74 mL/min/kg; the intrinsic clearance, rat liver microsomes turned out to be 18.9 mL/min/kg; the aqueous solubility was found to be 11.7 µg/mL (≈ 55.7 µM).
Taken in the same sequence, the figures for `CCC(=O)NCc1ccnc(N(C)C)c1` were 0.879, at most 4.74 mL/min/kg, at most 10.7 mL/min/kg and 30.6 µg/mL (≈ 147 µM).
Taken in the same sequence, the figures for `CCn1nccc1-c1cc(CC2CCNCC2)ncn1` were 54.7, at most 4.74 mL/min/kg, at most 10.7 mL/min/kg and 37.3 µg/mL (≈ 137 µM).
In the case of `Cc1ncsc1CNc1nnc(-c2ccncc2)o1`, the MDR1-MDCK efflux ratio was determined as 3.75; the intrinsic clearance, human liver microsomes came to 8.9 mL/min/kg; the intrinsic clearance, rat liver microsomes was found to be 61.5 mL/min/kg.
Taken in the same sequence, the figures for `COc1ccc(N)c(OCc2ccccc2)c1` were 0.705, 103 mL/min/kg and 707 mL/min/kg.
As for `Cc1cnc(Cl)nc1-c1ccc(N(Cc2ccc(CNC(=O)C(F)F)cc2)C(=O)c2ccc(O)cc2O)cc1`, the MDR1-MDCK efflux ratio is 54.7; the intrinsic clearance, human liver microsomes was 41.3 mL/min/kg; the intrinsic clearance, rat liver microsomes was 84.6 mL/min/kg; the aqueous solubility is 27.6 µg/mL (≈ 49.8 µM).
`Oc1ccccc1NCc1ccccn1` returned an intrinsic clearance, human liver microsomes of 24.9 mL/min/kg; an intrinsic clearance, rat liver microsomes of 600 mL/min/kg; an aqueous solubility of 44.1 µg/mL (≈ 220 µM).
Regarding `Cn1cc(Nc2nccc(N3CC4CCC(C3)N4C(=O)[C@@H]3CC3(F)F)n2)cn1`, the MDR1-MDCK efflux ratio was determined as 39.9; the fraction unbound, human plasma was 0.44; the fraction unbound, rat plasma was determined as 0.612; the intrinsic clearance, human liver microsomes is 7.26 mL/min/kg. Also, the intrinsic clearance, rat liver microsomes came to 32.5 mL/min/kg.
On to `CSc1cccc(-c2ccccc2-c2nnc(C)o2)c1`, for which the MDR1-MDCK efflux ratio is 0.652; the intrinsic clearance, human liver microsomes worked out at 145 mL/min/kg; the intrinsic clearance, rat liver microsomes was 2460 mL/min/kg; the aqueous solubility was determined as 41.5 µg/mL (≈ 147 µM).
In turn, `CCNC(=O)c1noc(-c2cc(C(C)C)c(O)cc2O)c1-c1ccc(CN2CCOCC2)cc1` gave an intrinsic clearance, human liver microsomes of 38.8 mL/min/kg and an intrinsic clearance, rat liver microsomes of 351 mL/min/kg.
As for `COc1ccnc(N2CCCN(Cc3ccccc3C)CC2)n1`, the intrinsic clearance, human liver microsomes is 756 mL/min/kg and the intrinsic clearance, rat liver microsomes was found to be 2350 mL/min/kg.
As for `COc1cc(CN2C[C@H]3CCc4c(nc(C)[nH]c4=O)[C@H]3C2)cc(OC)c1OC`, the MDR1-MDCK efflux ratio is 47.5; the intrinsic clearance, human liver microsomes was at most 4.74 mL/min/kg; the intrinsic clearance, rat liver microsomes is at most 10.7 mL/min/kg.
Take `CCN(CC)Cc1ccc2cc(COC(=O)Nc3ccc(C(=O)NO)cc3)ccc2c1`: the MDR1-MDCK efflux ratio amounted to 22.6; the intrinsic clearance, human liver microsomes was 7.96 mL/min/kg; the intrinsic clearance, rat liver microsomes was 227 mL/min/kg; the aqueous solubility came out at 78 µg/mL (≈ 185 µM).
Take `COCc1ccccc1COC(=O)c1ccc(C)nc1`: the MDR1-MDCK efflux ratio was found to be 0.608; the intrinsic clearance, human liver microsomes worked out at 444 mL/min/kg; the intrinsic clearance, rat liver microsomes stood at 2220 mL/min/kg.
For `CCc1nc2c(C)cc(N3CCN(CC(=O)N4CC(O)C4)CC3)cn2c1N(C)c1nc(-c2ccc(F)cc2)c(C#N)s1`, the MDR1-MDCK efflux ratio is 97.9; the fraction unbound, human plasma is 0.00624; the fraction unbound, rat plasma came to 0.00368; the intrinsic clearance, human liver microsomes was found to be 108 mL/min/kg. This compound also gave an intrinsic clearance, rat liver microsomes of 557 mL/min/kg and an aqueous solubility of 60.3 µg/mL (≈ 102 µM).
Take `O=c1c(CO)cc2cc3c(cc2n1Cc1ccccn1)CCC3`: the MDR1-MDCK efflux ratio is 1.39; the intrinsic clearance, human liver microsomes was 12.6 mL/min/kg; the intrinsic clearance, rat liver microsomes amounted to 1170 mL/min/kg.
`Cc1nccc(-c2cccc(NCC(=O)Nc3ccc(F)cc3)c2)n1` returned an intrinsic clearance, human liver microsomes of 39.1 mL/min/kg and an intrinsic clearance, rat liver microsomes of 304 mL/min/kg.
`CCn1cc(CN2CCC(c3nc(N(C)C)ncc3-c3ccc(OC)cc3)CC2)c(C)n1`: the MDR1-MDCK efflux ratio came to 13.3; the intrinsic clearance, human liver microsomes came out at 158 mL/min/kg; the intrinsic clearance, rat liver microsomes is 473 mL/min/kg; the aqueous solubility is 54 µg/mL (≈ 124 µM).
For `Cc1cc(C(=O)NCC2CCN(c3ccc4ccccc4n3)CC2)cnc1C`, the MDR1-MDCK efflux ratio came to 2.19; the intrinsic clearance, human liver microsomes was 58.1 mL/min/kg; the intrinsic clearance, rat liver microsomes is 477 mL/min/kg.
Compound `CC1=C(C(=O)OCc2ccc3c(c2)OCO3)C(c2ccccc2)NC(=O)N1` (stereo unspecified) displayed an aqueous solubility of 1.88 µg/mL (≈ 5.12 µM).
Turning to `Cc1ccc(-c2nc(NCc3ccco3)ncc2-c2cc(C)no2)cn1`, the MDR1-MDCK efflux ratio is 0.989; the intrinsic clearance, human liver microsomes turned out to be 87.5 mL/min/kg; the intrinsic clearance, rat liver microsomes worked out at 492 mL/min/kg; the aqueous solubility was determined as 10.3 µg/mL (≈ 29.7 µM).
The matching figures for `Cc1nnc(NC(=O)c2ccccc2-c2ccc(C(F)(F)F)cc2)s1`: 1.45, 12.1 mL/min/kg, 28.3 mL/min/kg and 1.35 µg/mL (≈ 3.72 µM).
With `CN1CCc2ccc(C(=O)NCCC(=O)Nc3cccnc3)cc21`, the MDR1-MDCK efflux ratio amounted to 43.4; the intrinsic clearance, human liver microsomes was 6.19 mL/min/kg; the intrinsic clearance, rat liver microsomes worked out at 86.6 mL/min/kg.
The matching figures for `Cc1nc2cc(=O)[nH]n2c(C)c1CC(=O)OC1CCCCC1`: 1.09, 10.5 mL/min/kg and 649 mL/min/kg.
Take `N#Cc1ccccc1N1CCC(N)CC1`: the MDR1-MDCK efflux ratio was determined as 0.562; the intrinsic clearance, human liver microsomes worked out at 22.1 mL/min/kg; the intrinsic clearance, rat liver microsomes was 2210 mL/min/kg; the aqueous solubility stood at 54.7 µg/mL (≈ 272 µM).
Turning to `CNCc1cc(N(C)C)nc(C2CCCN2C(=O)COC)n1` (stereo unspecified), the MDR1-MDCK efflux ratio was 5.05; the intrinsic clearance, human liver microsomes was at most 4.74 mL/min/kg; the intrinsic clearance, rat liver microsomes was at most 10.7 mL/min/kg.
The compound `Cc1cc(NC(=O)c2cc(F)cc(F)c2)sn1` had an intrinsic clearance, human liver microsomes of 130 mL/min/kg and an intrinsic clearance, rat liver microsomes of 77.3 mL/min/kg.
Turning to `CCN(C)S(=O)(=O)N(C)Cc1cnc2ccccc2c1`, the MDR1-MDCK efflux ratio was determined as 0.658; the intrinsic clearance, human liver microsomes was determined as 15.1 mL/min/kg; the intrinsic clearance, rat liver microsomes worked out at 2320 mL/min/kg.
`N#Cc1cc2c(nc1SCc1cccnc1)CCCCCC2`: the MDR1-MDCK efflux ratio was found to be 0.913 and the aqueous solubility is 0.22 µg/mL (≈ 0.711 µM).
Turning to `Cc1noc(OCC(=O)N2CCCCCC2)n1`, the MDR1-MDCK efflux ratio is 1.01; the intrinsic clearance, human liver microsomes is at most 4.74 mL/min/kg; the intrinsic clearance, rat liver microsomes was at most 10.7 mL/min/kg; the aqueous solubility worked out at 50.2 µg/mL (≈ 210 µM).
As for `COCCN1CCOc2nc3c(C)cccc3cc2C1`, the MDR1-MDCK efflux ratio is 0.564; the intrinsic clearance, human liver microsomes came out at 14.7 mL/min/kg; the intrinsic clearance, rat liver microsomes is 882 mL/min/kg.
The matching figures for `Cc1cccc(NC(=O)CN(C)Cc2nc3ccc(Cl)cc3c(=O)[nH]2)c1C`: 12.5, 101 mL/min/kg and 1270 mL/min/kg.
The matching figures for `CCOC1CCN(c2ccnc(C(=O)NCc3ccccc3)c2)CC1`: 0.488, 18.3 mL/min/kg and 390 mL/min/kg.
The compound `O=C1OCCN1CCN1CCC(c2cc3ccccc3[nH]2)CC1` had an intrinsic clearance, human liver microsomes of 11.1 mL/min/kg and an intrinsic clearance, rat liver microsomes of 488 mL/min/kg.
In the case of `COc1cc(F)c(NCC(=O)Nc2ccc(C)cc2)cc1OC`, the MDR1-MDCK efflux ratio came to 0.669; the intrinsic clearance, human liver microsomes amounted to 31.7 mL/min/kg; the intrinsic clearance, rat liver microsomes came out at 269 mL/min/kg; the aqueous solubility was 47.6 µg/mL (≈ 150 µM).
Compound `O=C(O)c1cc2cc(O)c(O)cc2c(C(=O)c2ccc(O)c(O)c2)n1` showed an intrinsic clearance, human liver microsomes of 35.5 mL/min/kg; an intrinsic clearance, rat liver microsomes of 110 mL/min/kg; an aqueous solubility of 57.9 µg/mL (≈ 170 µM).
As for `CCOC(=O)C1(Cc2cc(-c3ccc(F)cc3)no2)CCN(Cc2ccccc2O)CC1`, the MDR1-MDCK efflux ratio is 2.16; the intrinsic clearance, human liver microsomes was 155 mL/min/kg; the intrinsic clearance, rat liver microsomes amounted to 790 mL/min/kg; the aqueous solubility was 6.94 µg/mL (≈ 15.8 µM).
Taken in the same sequence, the figures for `Cc1ccc2c(c1)c(Cn1ccnc1-c1cccc(C)n1)nn2C` were 0.679, 122 mL/min/kg, 1920 mL/min/kg and 32.9 µg/mL (≈ 103 µM).
Taken in the same sequence, the figures for `Cc1nnnn1CCN(C)c1ccccc1` were 0.596, 8.8 mL/min/kg, 221 mL/min/kg and 11.2 µg/mL (≈ 51.4 µM).
In turn, `O=C(CN1C(=O)CCC1=O)Nc1ccc(F)c(F)c1F` displayed an aqueous solubility of 50 µg/mL (≈ 175 µM).
Regarding `O=C1CCCN1CCCc1nc(Cc2c(Cl)cccc2Cl)n[nH]1`, the MDR1-MDCK efflux ratio came out at 78.4; the intrinsic clearance, human liver microsomes came to 46.1 mL/min/kg; the intrinsic clearance, rat liver microsomes was 381 mL/min/kg.
